Laboratory results reported in patent US20040039039A1, “Fungicidal mixtures” (priority 2003, published 2004).

System: Plasmopara viticola
Experiment: Protective activity against Peronospora in grapevines caused by Plasmopara viticola
Assay type: in vivo
Details: individual active compound, potted vines
Experimental: The active compounds, separately or together, were formulated as a 10% emulsion in a mixture of 63% by weight of cyclohexanone and 27% by weight of emulsifier, and diluted with water to the desired concentration.
Evaluation was carried out by determining the infected leaf areas in percent. These percentages were converted into efficacies. The efficacy (W) was calculated as follows using Abbot's formula: […]
α corresponds to the fungal infection of the treated plants in % and β corresponds to the fungal infection of the untreated (control) plants in % An efficacy of 0 means that the infection level of the treated plants corresponds to that of the untreated control plants; an efficacy of 100 means that the treated plants were not infected.
The expected efficacies of the mixtures of the active compounds were determined using Colby's formula [R. S. Colby, Weeds 15, 20-22 (1967)] and compared with the observed efficacies.
Colby's formula: E=x+y−x·y/100
E expected efficacy, expressed in % of the untreated control, when using the mixture of the active compounds A and B at the concentrations a and b x efficacy, expressed in % of the untreated control, when using active compound A at a concentration a y efficacy, expressed in % of the untreated control, when using active compound B at a concentration b.
Protective Activity Against Peronospora in Grapevines Caused by Plasmopara viticola Leaves of potted vines of the cultivar “Müiller-Thurgau” were sprayed to runoff point with an aqueous preparation of active compound which had been prepared using a stock solution comprising 10% of active compound, 85% of cyclohexanone and 5% of emulsifier. The next day, the undersides of the leaves were inoculated with an aqueous zoospore suspension of Plasmopara viticola. The vines were then placed firstly for 48 hours in a water-vapor-saturated chamber at 24° C. and then for 5 days in a greenhouse at 20-30° C. After this period of time, the plants were again placed in a moist chamber for 16 hours to accelerate the sporangiophore eruption. The extent to which the undersides of the leaves had been infected was then determined visually.

| Compound | Efficacy in % of the untreated control (0.05 ppm in the spray liquor) [%] | Efficacy in % of the untreated control (0.1 ppm in the spray liquor) [%] | Efficacy in % of the untreated control (0.2 ppm in the spray liquor) [%] | Efficacy in % of the untreated control (5 ppm in the spray liquor) [%] | Efficacy in % of the untreated control (10 ppm in the spray liquor) [%] |
| --- | --- | --- | --- | --- | --- |
| Cc1ccc(-c2c(Cl)nc(C#N)n2S(=O)(=O)N(C)C)cc1 [Ia, cyazofamid] | 56 | 78 | 89 | – | – |
| manganese ethylenebis(dithiocarbamate) (zinc complex) [IIa] | – | – | – | 11 | 72 |
| zinc ammoniate ethylenebis(dithiocarbamate) [IIc] | – | – | – | 0 | 11 |
